Converted amounts (≈) assume the structure as drawn. Read-outs that look alike come from different tables or passages of the source.
Assays:
S. aureus Newman = assay: Minimal inhibitory concentration (MIC), double-dilution in broth, OD600; type: cell-based, Staphylococcus aureus Newman; details: unit assumed
Protocol: (§1) In short, a stock solution of 5 mg/mL of HKIs in DMSO was made. This stock was diluted to 50 µg/mL in broth in a 96 well plate. Dilutions were made (factor 2) directly in the plate with a multi-channel pipet. Bacteria cultured in suspension overnight were then added to the plate (except negative control) and the plate was incubated for 24 hours. After 24 hours the OD600 was measured using a spectrophotometer. A positive control (with bacteria, without HKI) was also measured on each plate.
Bacterial strains used in this study for antibacterial susceptibility testing (Table S2) were propagated using standard microbiological procedures. Minimal inhibitory concentrations (MICs) were determined following a standard double-dilution method (42), 73. […] For M. marinum, MICs were determined in Middlebrook 7H9 broth (Difco) and MICs were determined after 3 days incubation at 30 °C.
(§2) Grow the bacterial colonies to be tested from single colonies on an agar plate in LB broth or suitable bacterial growth medium overnight at 37°C. Prepare a 5 mg/mL stock solution of compounds to be tested in DMSO. One 96-well plate per bacterial strain was prepared. First, put 50 uL of medium to each well. Add 48 µL of medium to all wells in row A. Pipet 2 µL of antimicrobial master stock into the top well (row A). Beware, the antimicrobial concentration will be diluted 2x after adding the bacterial culture. Total volume in each well will be 100 µL. In A11, pipet 2 µL of DMSO. Make a serial dilution from row A to row H, pipetting 50 µL from the previous row into the new one. Mix well by pipetting up and down. Discard the last 50 µL so that there is 50 µl in each well In a clean, new plastic pipetting cup, dilute the overnight bacterial culture 100 times. Add 100 µL of bacterial overnight culture to 9900 µL of medium. Mix the suspension well. Once the serial dilutions are complete for all antimicrobial compounds, add 50 µL of diluted overnight bacterial culture to each well (except column 12). Mix by pipetting or put the plate on the shaker. Per 2 plates, close with parafilm around the edges and place in the incubator overnight. After overnight culturing, measure bacterial growth on the SpectraMax. The lowest concentration where no growth is observed is the MIC. To determine the MIB pipette 5 µL from each well of the 96 well plate where now growth was observed on to an LB agar plate, without antimicrobial. Put the plates in the incubator to grow overnight. The minimal concentration where no growth can be seen on the agar plate is the MBC.

S. suis = assay: as above; type: cell-based, Streptococcus suis; details: unit assumed
Protocol: as §1, with “each plate. The MICs were not determined in duplo/triplicate in the same experiment, however, the MICs of several HKIs were measured in different experiments and no major differences (max. 1x dilution) were found in the MICs between the experiments.” for “each plate.”
(§3) Bacterial strains used in this study for antibacterial susceptibility testing (Table S2) were propagated using standard microbiological procedures. Minimal inhibitory concentrations (MICs) were determined following a standard double-dilution method (42), 73. MICs were recorded as the lowest concentration of the compound where no visible growth was observed. After plating the dilutions around the MIC or growing them in fresh MH media, minimal bactericidal concentration (MBC) was recorded as the lowest concentration of the compound at which no colonies were formed or no growth was observed, respectively. For M. marinum, MICs were determined in Middlebrook 7H9 broth (Difco) and MICs were determined after 3 days incubation at 30 °C.
as §2

P. multocida = assay: as above; type: cell-based, Pasteurella multocida; details: unit assumed
Protocol: as §1, with “each plate. The MICs were not determined in duplo/triplicate in the same experiment, however, the MICs of several HKIs were measured in different experiments and no major differences (max. 1x dilution) were found in the MICs between the experiments.” for “each plate.”
as §3, §2

M. marinum = assay: Minimal inhibitory concentration (MIC), Middlebrook 7H9 broth, 3 days at 30 °C; type: cell-based, Mycobacterium marinum; details: unit assumed
Protocol: as §1, with “each plate. The MICs were not determined in duplo/triplicate in the same experiment, however, the MICs of several HKIs were measured in different experiments and no major differences (max. 1x dilution) were found in the MICs between the experiments.” for “each plate.”
as §3, §2

E. coli JW5503 = type: cell-based, Escherichia coli; details: unit assumed
Protocol: as §1, with “each plate. The MICs were not determined in duplo/triplicate in the same experiment, however, the MICs of several HKIs were measured in different experiments and no major differences (max. 1x dilution) were found in the MICs between the experiments.” for “each plate.”
as §3, §2

E. faecium Van A = assay: Minimal inhibitory concentration (MIC), double-dilution in broth, OD600; type: cell-based, Enterococcus faecium; details: unit assumed
Protocol: as §1, with “each plate. The MICs were not determined in duplo/triplicate in the same experiment, however, the MICs of several HKIs were measured in different experiments and no major differences (max. 1x dilution) were found in the MICs between the experiments.” for “each plate.”
as §3, §2

HEK293 = assay: Cell toxicity, Alamar blue assay, 24 hours exposure; type: cell-based; details: for IC50: Homo sapiens
Protocol: (§4) Toxicity was primarily determined by measuring cytotoxicity with the Alamar blue assay. In short, cells (HEK293, NRK-52E and Caco-2) were plated in 96-well plates and cultured overnight. HKI compounds were diluted to concentrations ranging from 0.39 to 500 µg/mL in serum-free medium and added to the cells.
(§5) After exposure, cells were incubated for 24 hours. Experiments were mostly performed by single measurement. […] After 24 hours HKIs were removed from the cells and Alamar blue was added, incubated for 45 minutes and fluorescence was measured on a spectrophotometer. Alamar blue measures the conversion of blue, low fluorescent resazurin into high fluorescent pink resorufin. This conversion can only be made in viable mitochondria in viable cells and therefore this dye provides a measure for cytotoxicity.

NRK-52E = assay: as above; type: cell-based; details: for IC50: Rattus norvegicus, read-out: IC50 NRK-52E (50 mg/mL stock)
Protocol: as §4, §5

[1] = HEK293, read-out: IC50 HEK293 (5 mg/mL stock)
[2] = HEK293, read-out: IC50 HEK293 (50 mg/mL stock)

SMILES | MIC S. aureus Newman (S. aureus Newman) | MIC S. suis (S. suis) | MIC P. multocida (P. multocida) | MIC M. marinum (M. marinum) | MIC E. coli JW5503 (E. coli JW5503) | MIC E. faecium Van A (E. faecium Van A) | IC50 HEK293 (5 mg/mL stock) (HEK293; HEK293, 5 mg/mL stock) | IC50 HEK293 (50 mg/mL stock) (HEK293; HEK293, 50 mg/mL stock) | IC50 NRK-52E (50 mg/mL stock) (NRK-52E; 50 mg/mL stock) | IC50 (HEK293; [1]) | IC50 (NRK-52E) | IC50 (HEK293; [2])
Oc1ccc(-c2n[nH]c(C(F)(F)F)c2-c2ccc(Br)cc2)c(O)c1 [AND-1, 4-[4-(4-bromophenyl)-5-(trifluoromethyl)-1∼{H}-pyrazol-3-yl]resorcinol] | 3.13 µg/mL (≈ 7.84 µM) | 12.5 µg/mL (≈ 31.3 µM) | 25 µg/mL (≈ 62.6 µM) | > 50 µg/mL | 1.56 µg/mL (≈ 3.91 µM) | 12.5 µg/mL (≈ 31.3 µM) | 6.94 | 14.7 | ∼3.86 | – | – | –
CCOc1ccc(-c2[nH]nc(C(F)(F)F)c2-c2ccc(Br)cc2)c(O)c1 [May-6, 2-[4-(4-bromophenyl)-5-(trifluoromethyl)-1∼{H}-pyrazol-3-yl]-5-ethoxy-phenol] | 1.56 µg/mL (≈ 3.65 µM) | 3.13 µg/mL (≈ 7.33 µM) | > 50 µg/mL | 50 µg/mL (≈ 117 µM) | 3.13 µg/mL (≈ 7.33 µM) | 3.13 µg/mL (≈ 7.33 µM) | – | – | – | 4.53 µg/mL (≈ 10.6 µM) | ~563 µg/mL (≈ 1320 µM) | –
Cc1noc(-c2ccc(O)cc2O)c1-c1ccc(Br)cc1 [AND-3, 4-[4-(4-bromophenyl)-3-methyl-isoxazol-5-yl]resorcinol] | 25 µg/mL (≈ 72.2 µM) | 50 µg/mL (≈ 144 µM) | 50 µg/mL (≈ 144 µM) | > 50 µg/mL | 6.25 µg/mL (≈ 18.1 µM) | 0.78 µg/mL (≈ 2.25 µM) | – | – | – | 12.2 µg/mL (≈ 35.2 µM) | ~354 µg/mL (≈ 1020 µM) | 62.9 µg/mL (≈ 182 µM)
COc1ccc(-c2c(C(F)(F)F)n[nH]c2-c2ccc(OCc3ccccc3)cc2O)cc1 [May-26, 5-benzoxy-2-[4-(4-methoxyphenyl)-5-(trifluoromethyl)-1∼{H}-pyrazol-3-yl]phenol] | 1.56 µg/mL (≈ 3.54 µM) | 3.13 µg/mL (≈ 7.11 µM) | > 50 µg/mL | 12.5 µg/mL (≈ 28.4 µM) | 3.13 µg/mL (≈ 7.11 µM) | – | – | – | – | – | 9.64 µg/mL (≈ 21.9 µM) | 4.8 µg/mL (≈ 10.9 µM)
Oc1cc(OCc2ccccc2Cl)ccc1-c1n[nH]c(C(F)(F)F)c1-c1ccc(Cl)cc1 [Sep-25, 5-(2-chlorobenzyl)oxy-2-[4-(4-chlorophenyl)-5-(trifluoromethyl)-1∼{H}-pyrazol-3-yl]pheno] | 3.13 µg/mL (≈ 6.53 µM) | 12.5 µg/mL (≈ 26.1 µM) | > 50 µg/mL | 50 µg/mL (≈ 104 µM) | > 50 µg/mL | 12.5 µg/mL (≈ 26.1 µM) | – | – | – | 19.3 µg/mL (≈ 40.2 µM) | 17.3 µg/mL (≈ 36 µM) | 18.1 µg/mL (≈ 37.7 µM)
Oc1cc(OCc2ccccc2)ccc1-c1n[nH]c(C(F)(F)F)c1-c1ccc(Br)cc1 [May-15, 5-benzoxy-2-[4-(4-bromophenyl)-5-(trifluoromethyl)-1∼{H}-pyrazol-3-yl]phenol] | 1.56 µg/mL (≈ 3.19 µM) | 3.13 µg/mL (≈ 6.4 µM) | > 50 µg/mL | 12.5 µg/mL (≈ 25.5 µM) | > 50 µg/mL | 3.13 µg/mL (≈ 6.4 µM) | – | – | – | – | 5.13 µg/mL (≈ 10.5 µM) | 6.9 µg/mL (≈ 14.1 µM)
C=C(C)COc1ccc(-c2[nH]nc(C(F)(F)F)c2-c2ccc(Cl)cc2)c(O)c1 [Sep-29, 2-[4-(4-chlorophenyl)-5-(trifluoromethyl)-1∼{H}-pyrazol-3-yl]-5-(2-methylallyloxy)phenol] | 3.13 µg/mL (≈ 7.66 µM) | 12.5 µg/mL (≈ 30.6 µM) | > 50 µg/mL | > 50 µg/mL | 12.5 µg/mL (≈ 30.6 µM) | 6.25 µg/mL (≈ 15.3 µM) | – | – | – | 16.4 µg/mL (≈ 40.1 µM) | 19.9 µg/mL (≈ 48.7 µM) | –

Reference: EP3827825A1, “USE OF 3, 4-DIARYLPYRAZOLES AS ANTIBACTERIAL AGENTS” (Wageningen Universiteit, priority 2019, dated 2021)
